Data taken from patent US5753614A, “Nisin compositions for use as enhanced, broad range bactericides” (AMBI Inc., priority 1995, dated 1998).

How the values were obtained:
Listeria monocytogenes [1] = assay: Bactericidal activity towards Listeria monocytogenes in milk; type: cell-based; conditions: for % Survival 2 hr: L. monocytogenes in milk
Method: (§1) All tests in the following examples were performed at 37° C. The efficacy of the enhanced broad range bactericides was determined by assaying bactericidal activity as measured by the percent bacterial survival after treatment with the bactericide. Generally, after incubation of a 10^7 cell per ml suspension of target species with the novel bactericide for specified lengths of time, bacteria were collected by centrifugation for 2 minutes. The bacterial pellet was washed free of the bactericide with a rescue buffer, termed herein Phage buffer (50 mM Tris-HCl buffer pH 7.8, 1 mM MgSO4, 4 mM CaCl2, 0.1M Nacl, and 0.1% gelatin), resuspended and serially diluted into Phage buffer, and 100 μl of the suspended bacteria were spread on nutrient agar plates. Surviving bacteria were determined by scoring colony forming units (CFU) after incubation for 24-48 hours at 37° C.
An example of where the application of nisin is limited by its available activity is illustrated by the data in Table 15B.
(§2) Incubations were in milk at 37° C.

Streptococcus agalactiae = assay: Bactericidal activity towards Streptococcus agalactiae in milk; type: cell-based; conditions: S. agalactiae in milk
Method: as §1
However, the combination of the two agents, 0.1% monolaurin and nisin 0.2 μg/ml, is extremely potent towards S. agalactiae. […] Thus, when the application of nisin is limited by its available activity, a bactericide comprising nisin with a surfactant can be expected to be more useful.
as §2

S. typhimurium = assay: Bactericidal activity, percent survival of S. typhimurium suspension; type: cell-based, Salmonella typhimurium; conditions: for % Survival at 2 hours: S. typhimurium
Method: as §1
The control (Test #1) is identical to the control of Example 1 (Table 1).

E. coli = assay: Bactericidal activity, percent survival of E. coli at 2 hours; type: cell-based, Escherichia coli; conditions: for Percentage E. coli Survival at 2 hours: Tris pH 8.0
Method: as §1
The effects of the bactericide were measured as a function of percentage bacteria survival after 2 hours.

K. pneumoniae = assay: Bactericidal activity, percent survival of K. pneumoniae; type: cell-based, Klebsiella pneumoniae
Method: as §1
The effect was measured as a function of percentage bacterial survival after 2 hours.

[2] = test system: S. typhimurium on chicken muscle; assay: Bactericidal activity towards S. typhimurium on chicken muscle (unadhered cells); type: cell-based, Salmonella typhimurium
Method: Incubations were performed in either 50 mM sodium acetate, pH 5.0, or 20 mM Tris, pH 8.0 at 37° C.
Cubes of chicken muscle were cleansed with sodium hypochlorite and povidone iodine prior to use. To inoculate the tissue, the cubes of chicken muscle were dipped into a 10^8 cells/ml suspension of S. typhimurium in 20 mM Tris HCl, pH 8.0. Excess moisture was removed from dipped cubes by tapping. The chicken samples were placed into sufficient buffer containing the nisin composition to cover the tissue and incubated for 2 hours at 37° C. after which the tissue was removed to sufficient Phage buffer to cover the tissue. The bacteria remaining in the test solution were collected by centrifugation, washed with Phage buffer, and combined with bacteria washed from the tissue by Phage buffer. The combined samples (termed "unadhered" cells) were serially diluted and 100 μl aliquots were plated for determination of surviving bacteria.
(§3) Cubes of chicken muscle were cleansed with sodium hypochlorite and povidone iodine prior to use. To inoculate the tissue, the cubes of chicken muscle were dipped into a 10^8 cells/ml suspension of S. typhimurium in 20 mM Tris HCl, pH 8.0. Excess moisture was removed from dipped cubes by tapping. The tissue was placed into sufficient buffer containing the nisin compositions to cover the tissue, and incubated for 2 hours at 37° C. after which the tissue was removed to sufficient Phage buffer to cover the tissue. The bacteria remaining in the test solution were collected by centrifugation, washed with Phage buffer, and combined with bacteria washed from the tissue by Phage buffer. The combined samples (termed "unadhered" cells) were serially diluted and 100 μl aliquots were plated for determination of surviving bacteria.
as §3, with “cleaned” for “cleansed”, “50” for “20”, “sodium acetate buffer,” for “Tris HCl,”, “5.0.” for “8.0.”, “containing” for “containing the”

Staphylococcus aureus = assay: Bactericidal activity towards Staphylococcus aureus, influence of pH and EDTA; type: cell-based; conditions: S. aureus
Method: as §1
Incubations were performed in 50 mM sodium acetate buffer, pH 5.0 or 20 m
TrisHCl buffer, pH 8.0 at 37° C.

Streptococcus mutans [3] = assay: Bactericidal activity towards Streptococcus mutans at 2 hr; type: cell-based; conditions: S. mutans; nisin 0.1 μg/ml, EDTA 0; 20 mM TrisHCl pH 8.0
Method: as §1
(§4) Incubations were performed in 20 mM TrisHCl, pH 8.0 at 37° C.

Listeria monocytogenes [4] = assay: Bactericidal activity towards Listeria monocytogenes in Tris buffer; type: cell-based; conditions: L. monocytogenes
Method: as §1, §4

Coryneform bacteria = assay: Bactericidal activity towards Coryneform bacteria; type: cell-based, mixed population of axillary Coryneform bacteria
Method: as §1, §4

Streptococcus mutans [5] = assay: Kinetics of bactericidal activity towards Streptococcus mutans; type: cell-based; conditions: S. mutans, nisin 0 with 1.0 mM EDTA, pH 7.3
Method: The suspensions were incubated for various times ranging from 0.5 to 60 minutes with the bactericides. The bactericidal efficacy of the bactericides was estimated by determining the percent survival of bacteria.
Incubations were performed in 20 mM TrisHCl, pH 7.3 at 37° C.

Escherichia coli = assay: Rapid bactericidal activity towards Escherichia coli (1 min); type: cell-based; conditions: E. coli; EDTA 1.0 mM, nisin 0; 20 mM Tris pH 7.0
Method: as §1
Incubations were performed in 20 mM Tris, pH 7.0 at 37° C.

[6] = nisin 3.0 μg/ml, EDTA 0, pH 8.0

## monooleate
Listeria monocytogenes [1]; monooleate 0.1%, nisin 0
  % Survival 2 hr: 67%
Listeria monocytogenes [1]; monooleate 1.0%, nisin 0
  % Survival 2 hr: 63%
Listeria monocytogenes [1]; monooleate by itself, in milk
  bactericidal activity towards L. monocytogenes (in words): no bactericidal activity

## CCCCCCCCCCCC(=O)OCC(O)CO (stereo not shown) [Monolaurin, monolaurin]
Streptococcus agalactiae; monolaurin 0.01%, nisin 0
  % survival at 2 h: 100%
Streptococcus agalactiae; monolaurin 0.1%, nisin 0
  % survival at 2 h: 4.5%

## Triton X-100
S. typhimurium; Triton X-100 1.0%, nisin 0, EDTA 0, Tris pH 8.0
  Percentage S. typhimurium Survival at 3 hours: 37.4%
E. coli; Triton X-100 1.0%, nisin 0, EDTA 0
  Percentage E. coli Survival at 2 hours: 100%
E. coli; Triton X-100 1.0%, tests #3 and #4
  bactericidal activity towards E. coli (in words): no significant bactericidal activity

## Nisin
S. typhimurium; nisin 10 ug/ml, EDTA 0, BSA 0 (Table 8)
  % Survival at 2 hours: 51.3%
S. typhimurium; nisin 100 ug/ml, EDTA 0, BSA 0 (Table 8)
  % Survival at 2 hours: 1.6%
S. typhimurium; nisin 100 μg/ml, EDTA 0, pH 5.0
  % Survival at 2 hours: 0.6%
S. typhimurium; nisin 100 μg/ml, EDTA 0, pH 8.0 (Table 6)
  % Survival at 2 hours: 4%
S. typhimurium; nisin 50 μg/ml, EDTA 0, 20 mM Tris pH 8.0
  Percentage S. typhimurium Survival at 3 hours: 7.0%
S. typhimurium; nisin 100 μg/ml, EDTA 0, 20 mM Tris pH 8.0
  Percentage S. typhimurium Survival at 3 hours: 1.6%
E. coli; nisin 100 μg/ml, EDTA 0, Triton X-100 0
  Percentage E. coli Survival at 2 hours: 25%
E. coli; nisin 300 μg/ml, EDTA 0, Triton X-100 0
  Percentage E. coli Survival at 2 hours: 8.5%
K. pneumoniae; nisin 100 μg/ml, EDTA 0, 20 mM Tris pH 8.0, 37°C
  % Survival at 2 hours: 50%
K. pneumoniae; nisin 300 μg/ml, EDTA 0, Tris pH 8.0
  % Survival at 2 hours: 38%
[2]; nisin 300 ug/ml, 1% BSA, EDTA 0, pH 8.0
  % Survival at 2 hours (Unadhered cells): 0.02%
[2]; nisin 300 ug/ml, EDTA 0, pH 5.0
  % Survival at 2 hours (Unadhered cells): 0.1%
[2]; nisin 300 ug/ml, EDTA 0, pH 8.0
  % Survival at 2 hours (Unadhered cells): 7.5%
Staphylococcus aureus; nisin 3.0 μg/ml, EDTA 0, pH 5.0
  % Survival 2 hr: 0.6%
Staphylococcus aureus; [6]
  % Survival 2 hr: 7.4%
Streptococcus mutans [3]
  % Survival after 2 hr: 4.3%
Listeria monocytogenes [4]; [6]
  % Survival after 2 hr: 0.71%
Coryneform bacteria; nisin 3 ug/ml, EDTA 0, pH 8.0
  % Survival 2 hr: 0.22%
Streptococcus agalactiae; nisin 0.02 μg/ml, monolaurin 0
  % survival at 2 h: 100%
Streptococcus agalactiae; nisin 0.2 μg/ml, monolaurin 0
  % survival at 2 h: 2.2%
Listeria monocytogenes [1]; nisin 100 μg/ml, monooleate 0
  % Survival 2 hr: 0.56%

## O=C([O-])CN(CCN(CC(=O)[O-])CC(=O)O)CC(=O)O.[Na+].[Na+] [EDTA]
S. typhimurium; EDTA 20 mM, nisin 0, 20 mM Tris pH 8.0
  Percentage S. typhimurium Survival at 3 hours: 2.5%
S. typhimurium; EDTA 1.0 mM, BSA 1.0%, nisin 0, 20 mM Tris pH 8.0
  % Survival at 2 hours: 63%
S. typhimurium; EDTA 2.0 mM, nisin 0, 20 mM Tris pH 8.0
  % Survival at 2 hours: 8.7%
S. typhimurium; EDTA 2.0 mM, nisin 0, 50 mM sodium acetate pH 5.0
  % Survival at 2 hours: 38.7%
S. typhimurium; EDTA 10 mM, nisin 0, pH 5.0
  % Survival at 2 hours: 15.2%
S. typhimurium; EDTA 10 mM, nisin 0, pH 8.0
  % Survival at 2 hours: 14%
S. typhimurium; EDTA 50 mM, nisin 0, pH 5.0
  % Survival at 2 hours: 3.5%
S. typhimurium; EDTA 50 mM, nisin 0, pH 8.0
  % Survival at 2 hours: 11.4%
S. typhimurium; EDTA 100 mM, nisin 0, pH 8.0
  % Survival at 2 hours: 45%
E. coli; EDTA 20 mM, nisin 0
  Percentage E. coli Survival at 2 hours: 14.5%
K. pneumoniae; EDTA 20 mM, nisin 0, Tris pH 8.0
  % Survival at 2 hours: 22%
[2]; EDTA 1.0 mM, BSA 1.0%, nisin 0, pH 8.0
  % Survival at 2 hours: 27%
[2]; EDTA 10 mM, nisin 0, methyl paraben 0, 50 mM Na acetate pH 5.0 (Table 10)
  % Survival at 2 hours (Unadhered cells): 11.8%
[2]; EDTA 10 mM, nisin 0, pH 5.0 (Table 7)
  % Survival at 2 hours (Unadhered cells): 6.4%
[2]; EDTA 10 mM, nisin 0, pH 8.0
  % Survival at 2 hours (Unadhered cells): 5.2%
Staphylococcus aureus; EDTA 0.3 mM, nisin 0, pH 8.0
  % Survival 2 hr: 100%
Staphylococcus aureus; EDTA 1.0 mM, nisin 0, pH 8.0
  % Survival 2 hr: 81%
Staphylococcus aureus; EDTA 3.0 mM, nisin 0, pH 5.0
  % Survival 2 hr: 100%
Staphylococcus aureus; EDTA 3.0 mM, nisin 0, pH 8.0
  % Survival 2 hr: 100%
Staphylococcus aureus; EDTA 10 mM, nisin 0, pH 8.0
  % Survival 2 hr: 100%
Staphylococcus aureus; EDTA 30 mM, nisin 0, pH 8.0
  % Survival 2 hr: 100%
Listeria monocytogenes [4]; EDTA 1.0 mM, nisin 0, 20 mM TrisHCl pH 8.0
  % Survival after 2 hr: 84%
Coryneform bacteria; EDTA 0.3 mM, nisin 0, 20 mM TrisHCl pH 8.0
  % Survival 2 hr: 4.6%
Coryneform bacteria; EDTA 1.0 mM, nisin 0, pH 8.0
  % Survival 2 hr: 3.6%
Coryneform bacteria; EDTA 3.0 mM, nisin 0, pH 8.0
  % Survival 2 hr: 8%
Coryneform bacteria; EDTA 10 mM, nisin 0, pH 8.0
  % Survival 2 hr: 36%
Streptococcus mutans [5]; 3 min
  % Survival: 100%
Streptococcus mutans [5]; 60 min
  % Survival: 100%
Escherichia coli
  % survival at 1 min: 100%
